One assay has as its system MDA-MB-231 cells. The assay can be described thus: RNA microarray of differentially-regulated genes. It is filed as cell-based, human. The settings on record: FIG. 9.
Assay [1] has as its system human breast cancer (MDA-MB-231) cell line. Description: anti-proliferative activity in CESCO bellows bottle perfusion model. It is filed as cell-based. The conditions noted are these: 144 h, MDA MB 231 cells in vitro, exposure for 6 days with daily refreshment, read-out: anti-proliferative (pro-apoptotic) IC50.
Experimental: FIGS. 8A and 8B depict the anti-proliferative activities of unmodified tetrac, unmodified resveratrol (RV) and the combination thereof against a human breast cancer (MDA-MB-231) cell line in vitro. The cell line is estrogen receptor (ER)-negative. The test system is a CESCO bellows bottle perfusion model in which cancer cells adhere to plastic flakes and are then exposed to continuous, recycled flow of chemotherapeutic agent in an oxygenated environment. Polyphenol (10 μM) or tetrac (0.1 μM) in DMEM buffer, supplemented with fetal bovine serum, are refreshed daily. […] Results shown are means of triplicate experiments.
MDA-MB cells were seeded in perfusion CESCO bellow bottles. Cells were refreshed with 1% FBS containing DMEM after 24 h incubation. Cells were then treated with tetrac (10^−7 M), or resveratrol (0.1 mM) or both. Resveratrol was added daily and tetrac was added every three days. Cells were harvested as indicated dates and counted.

By IC50 is commonly meant the concentration that inhibits the measured activity by half. Turning to `Oc1ccc(C=Cc2cc(O)cc(O)c2)cc1` [resveratrol], in the assay with MDA-MB-231 cells (10 μM, 24 h), the “expression of pro-apoptotic genes CASP2 and NLRP1 (NALP1)” value is given as “upregulated”; the “expression of tumor markers FTCD (hepatoma) and leukemogenic FUS gene” value was “suppressed”. The “expression of cancer-relevant genes FUS, AAKJ, USP6 (Tre6)” value in the assay with MDA-MB-231 cells was “downregulated”. The IC50 in assay [1] stood at 100 nM.

These data come from US20100159021A1, “Small Molecule Ligands of the Integrin RGD Recognition Site and Methods of Use” (priority 2008, published 2010).
